According to patent US20080090767A1, “Agent for prophylaxis of reflex sympathetic dystrophy after cerebral apoplexy” (Asahi Kasei Pharma Corporation, priority 2006, published 2008):

Columns and labels:
[1] = system: patients with hemiplegia attributed to cerebrovascular disease (stroke) who developed RSD (shoulder-hand syndrome); experiment: Test of treatment of post-stroke RSD (Reference Example 1); type: in vivo, human
Experimental: EL was administered after the onset of RSD (shoulder-hand syndrome) in the same use and dose as in Example 1 to 11 patients with hemiplegia attributed to cerebrovascular disease (stroke) at Brunnstrom stage III or lower in either the upper limb or a finger on admission, who developed RSD (shoulder-hand syndrome). These patients were classified into a therapeutic administration group. On the other hand, the EL administration group of Example 1 was compared as a control (preventive administration group) with the therapeutic administration group.

[2] = system: patients with hemiplegia attributed to cerebrovascular disease (stroke) at Brunnstrom stage III or lower, not yet developing RSD; experiment: Test of prevention of onset of post-stroke RSD (Example 1); type: in vivo, human
Excerpt: Test subjects were 32 patients with hemiplegia attributed to cerebrovascular disease (stroke) at Brunnstrom stage III or lower in either the upper limb or a finger on admission. Patients already developing RSD (shoulder-hand syndrome) on admission and patients with pain in the shoulder joint or swollen paralyzed limbs were excluded from the test. […] On the other hand, 21 test subjects were classified into a rehabilitation alone group (control group) and compared with the EL administration group. Physical therapy and therapeutic exercise, occupational therapy, and the management of the paralyzed limbs were performed thoroughly in all the cases. […] EL administration was initiated 11 to 59 days after an attack of stroke (25.8 days on average) and continued until 5 months after the attack of stroke. The same observation period was applied to the control group. The test subjects were diagnosed as developing RSD (shoulder-hand syndrome) if they had diffuse pain not localized to the shoulder joint, edema involving skin color changes, skin temperature abnormalities, and range of motion limitations, and the practice of their rehabilitation was restricted. These criteria agreed to Veldman's diagnostic criteria or diagnostic criteria for CRPS-type 1 provided by the International Association for the Study of Pain.
Activities of daily living (ADL) were evaluated on the basis of the Barthel Index (BI) and the range of motion (ROM) of shoulder joint. The movable range of shoulder joint (also referred to as “shoulder ROM”) was regarded as restricted (Shoulder-ROM-restrictions were present.) if either abduction or flexion was restricted in measurement. The test subjects were also examined for sensory impairment, aphasia, and unilateral spatial neglect on admission.
Statistical analysis was conducted with unpaired t-test, Fisher's exact test or Wilcoxon test, and 5% or lower significance level was regarded as being significant.

[3] = system: RSD triggered and developed by a trauma or surgical invasion; settings: literature report; cited from earlier work
[4] = therapeutic administration group
[5] = EL preventive administration group, 20 units i.m. once a week, until 5 months after the attack of stroke
[6] = preventive administration group

1-butyric acid-7-(L-2-aminobutyric acid)-26-L-aspartic acid-27-L-valine-29-L-alanine-calcitonin [elcatonin]
Barthel index, Average ± SE (at completion of administration) [1, 4]: 31.8 ± 7.8
Barthel index, Median (at completion of administration) [1, 4]: 25
No RSD, the number of persons (at completion of administration) ([1]; therapeutic administration group (EL after onset of RSD)): 0
Incidence of RSD converted to incidence in all patients with hemiplegia attributed to stroke in the facility ([2]; EL administration group): approximately 1.3%
Incidence of RSD (cases that developed RSD) ([2]; EL preventive administration group, 1 of the 12 cases): 8.3%
The number of test subjects developing post-stroke RSD: Developed [2, 5]: 1
The number of test subjects developing post-stroke RSD: Not developed [2, 5]: 11
Incidence of RSD when EL administration was initiated within 48 days after stroke ([2]; administration initiated within 48 days after stroke): 0%
Barthel index, Average ± SE (at completion of administration) [2, 6]: 60.8 ± 9.3
Barthel index, Median (at completion of administration) [2, 6]: 72.5
No RSD, the number of persons (at completion of administration) [2, 6]: 11

O=C1O[C@H]([C@@H](O)CO)C(O)=C1O [vitamin C]
Effect on the initial onset of RSD in subjects having no anamnesis of RSD after a trauma or surgical invasion [3]: preventive effect
